The source of these data is US20160143884A1, “USE OF TETRAHYDROINDAZOLYLBENZAMIDE AND TETRAHYDROINDOLYLBENZAMIDE DERIVATIVES FOR THE TREATMENT OF HUMAN IMMUNODEFICIENCY VIRUS (HIV) AND ACQUIRED IMMUNE DEFICIENCY SYNDROME (AIDS)” (Esanex, Inc., priority 2014, published 2016).

A short description of series [1]: MTS staining for PBMC viability to measure cytotoxicity. The conditions noted are these: human, PBMCs. It counts as cell-based, human. An excerpt: (§1) Pooling (mixing) of mononuclear cells from more than one donor is used to minimize the variability observed between individual donors, which results from quantitative and qualitative differences in HIV infection and overall response to the PHA and IL-2 of primary lymphocyte populations. Each plate contains virus/cell control wells (cells plus virus), experimental wells (drug plus cells plus virus) and compound control wells (drug plus media without cells, necessary for MTS monitoring of cytotoxicity). […] Therefore, infected wells are used in the assessment of both antiviral activity and cytotoxicity. […] The PBMC cultures are maintained for seven days following infection at 37° C., 5% CO2. After this period, cell-free supernatant samples are collected for analysis of reverse transcriptase activity and/or p24 antigen content. Following removal of supernatant samples, compound cytotoxicity is measured by addition of MTS to the plates for determination of cell viability. Wells are also examined microscopically and any abnormalities are noted. MTS Staining for PBMC Viability to Measure Cytotoxicity Protocol: At assay termination, assay plates are stained with the soluble tetrazolium-based dye MTS (CellTiter 96 Reagent, Promega) to determine cell viability and quantify compound toxicity. The mitochondrial enzymes of metabolically active cells metabolize MTS to yield a soluble formazan product. This allows the rapid quantitative analysis of cell viability and compound cytotoxicity. […] At termination of the assay, 20 uL of MTS reagent is added per well. The microtiter plates are then incubated 4-6 hrs at 37° C. The incubation intervals were chosen based on empirically determined times for optimal dye reduction. Adhesive plate sealers are used in place of the lids, the sealed plate is inverted several times to mix the soluble formazan product and the plate is read spectrophotometrically at 490/650 nm with a Molecular Devices Vmax or SpectraMaxPlus plate reader.

The next series deals with PBMCs. The series is described as above. It counts as cell-based, human.
Description: as §1

Take `CC1(C)CC(=O)c2c(C(F)(F)F)nn(-c3ccc(C(N)=O)c(N[C@H]4CC[C@H](O)CC4)c3)c2C1` [Compound 9, 4-(6,6-Dimethyl-4-oxo-3-trifluoromethyl-4,5,6,7-tetrahydro-indazol-1-yl)-2-(trans-4-hydroxy-cyclohexylamino)-benzamide]: the CC50 at 7 days in series [1] was found to be 0.03 µM. In the series on PBMCs, the “TC 90% (90% cytotoxicity)” value was more than 2 µM and the “TC 95% (95% cytotoxicity)” value is more than 2 µM.
